Experimental data: patent US12692274B2, “Tetrahydroisoquinoline derivatives for the treatment of red blood disorders and inflammatory diseases” (Sanofi, priority 2020, dated 2026)
Values joined by “and” are separate entries in the source; they are usually repeats but may differ in a detail not shown here. Identical values can stand only once.

Legend:
[1] = tested on: NQO1 activation in BEAS-2B cells; test: BEAS-2B cellular MTT assay of NQO1 activation, 0% HSA; assay type: cell-based
How it was run: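 For the 0% HSA condition, cells were seeded into collagen plates in HSA-free medium. Culture was BEAS-2B in BEBM plus BEGM SingleQuots lacking GA-1000, held under 70% confluence, at a seeding density reaching 95-100% confluence by 48 h.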

[2] = target: HIS-Keap1 full length / Biotin-Nrf2 (16-mer) (Homo sapiens, UniProt Q14145); test: biochemical
HIS-Keap1 full length / Biotin-Nrf2 (16-mer), sequence (Q14145 whole entry): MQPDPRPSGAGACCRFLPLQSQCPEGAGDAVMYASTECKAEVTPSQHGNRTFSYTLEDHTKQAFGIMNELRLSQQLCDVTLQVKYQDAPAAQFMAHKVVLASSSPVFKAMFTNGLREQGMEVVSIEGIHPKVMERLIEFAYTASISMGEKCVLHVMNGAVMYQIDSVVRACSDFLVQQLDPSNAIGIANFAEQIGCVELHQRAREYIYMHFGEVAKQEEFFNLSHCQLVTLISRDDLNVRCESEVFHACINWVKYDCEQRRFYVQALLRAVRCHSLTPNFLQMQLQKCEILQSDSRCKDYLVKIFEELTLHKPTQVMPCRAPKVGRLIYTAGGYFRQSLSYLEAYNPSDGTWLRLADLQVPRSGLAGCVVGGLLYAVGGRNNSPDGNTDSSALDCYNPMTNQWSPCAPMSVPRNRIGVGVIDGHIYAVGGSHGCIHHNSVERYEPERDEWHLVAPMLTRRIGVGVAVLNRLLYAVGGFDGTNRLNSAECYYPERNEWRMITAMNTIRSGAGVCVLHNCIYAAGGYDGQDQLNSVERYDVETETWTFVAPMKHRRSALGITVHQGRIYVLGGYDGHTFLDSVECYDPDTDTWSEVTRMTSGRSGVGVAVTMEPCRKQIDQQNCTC

[3] = tested on: NQO1 activation in BEAS-2B cells; test: BEAS-2B cellular MTT assay of NQO1 activation, 0.3% HSA; assay type: cell-based
How it was run: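 MTT read-out in BEAS-2B cells grown in BEBM with SingleQuots, no GA-1000, kept below 70% confluence; plates coated with collagen, with 0.3% or 0% HSA medium, seeded to 95-100% confluency at 48 h, 37 °C, 5% CO2.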

[4] = Homo sapiens, serum free, read-out: BEAS EC50 (nM) serum free
[5] = Homo sapiens, BEAS+, read-out: BEAS+ EC50
[6] = serum free, read-out: BEAS EC50 (nM) serum free
[7] = Homo sapiens, Serum Free W, read-out: BEAS EC50 (nM) Serum Free W
[8] = Serum Free W, read-out: BEAS EC50 (nM) Serum Free W
[9] = BEAS+ W, read-out: BEAS+ W EC50
[10] = Homo sapiens, BEAS+ W, read-out: BEAS+ W EC50

Row | SMILES | EC50 [1, 4] | IC50 [2] | EC50 [3, 5] | EC50 [1, 6] | EC50 ([3]; BEAS+, read-out: BEAS+ EC50) | EC50 [1, 7] | EC50 [1, 8] | EC50 [3, 9] | EC50 [3, 10]
1 | Cc1nc2ncc1C(CC(=O)O)c1ccc3c(c1)CN(CC3)C(=O)c1ccc(c(Cl)c1)OCCCCO2 (centres unmarked) [Compound 186] | > 10000 nM | 527 nM and 289 nM | > 10000 nM |  |  |  |  |  | 
2 | Cc1cc2ccc1C(=O)N1CCc3ccc(cc3C1)C(CC(=O)O)c1ccc3c(nnn3CCCCCC2)c1Cl (centres unmarked) [Compound 171] | 1 nM | 2.5 nM | 8.3 nM | 1.6 nM | 5.4 nM |  |  |  | 
3 | O=C(O)CC1c2ccc(nc2)OCCCCOc2ccc(cc2C(F)(F)F)C(=O)N2CCc3ccc1cc3C2 (centres unmarked) [Compound 184] | 471 nM | 168 nM and 147 nM | 2900 nM | 713 nM | 2570 nM |  |  |  | 
4 | O=C(O)CC1c2ccc3c(c2)CN(CC3)C(=O)c2ccc(cc2F)CCCCCn2nnc3cc1ccc32 (centres unmarked) [Compound 252] | 15.5 nM | 1.2 nM and 1.3 nM (2×) and 1.4 nM | 21.2 nM |  |  |  |  |  | 
5 | Cc1c2ccc3c1nnn3CCCOCCOc1ccc(c(F)c1)C(=O)N1CCc3ccc(cc3C1)[C@@H]2[C@H](C)C(=O)O [Compound 369] | 2010 nM | 13.2 nM and 14 nM | 2080 nM | 1930 nM | 2230 nM |  |  |  | 
6 | Cc1c2cnc3c1nnn3CCCCCc1cccc3c1cc(n3C)C(=O)N1CCc3ccc(cc3C1)C2CC(=O)O (centres unmarked) [Compound 49] |  | 0.6 nM (2×) and 0.4 nM and 0.5 nM |  |  |  | 27 nM | 28.8 nM | 93.2 nM | 117 nM
7 | Cc1c2ccc3c1nnn3CCCOCCOc1ccc(c(F)c1)C(=O)N1CCc3ccc(cc3C1)C2CC(=O)O (centres unmarked) [Compound 383] | 179 nM | 0.9 nM | 196 nM | 162 nM | 187 nM |  |  |  | 
8 | Cc1c2ccc3c1nnn3CCCCCCc1ccc(c3cccnc13)C(=O)N1CCc3ccc(cc3C1)[C@@H]2CC(=O)O [Compound 48] |  | 0.1 nM and 0.2 nM |  |  |  | 12 nM | 9.1 nM | 23.9 nM | 26.1 nM
9 | Cc1cc2ccc1C(=O)N1CCc3ccc(cc3C1)C(CC(=O)O)c1ccc(nc1)OCCCCO2 (centres unmarked) [Compound 209] | 469 nM | 0.4 nM and 0.5 nM | 843 nM | 494 nM | 903 nM |  |  |  | 
10 | Cc1cc2ncc1[C@@H](CC(=O)O)c1ccc3c(c1)CN(CC3)C(=O)c1c(F)cc(cc1F)CCCCCO2 [Compound 122] |  | 52.8 nM and 42.8 nM |  |  |  | 17.6 nM | 30.2 nM | 54.2 nM | 47 nM
11 | O=C(O)CC1c2ccc3c(c2)CN(CC3)C(=O)c2c(F)cc(cc2F)CCCCCCn2nnc3cc1ccc32 (centres unmarked) [Compound 243] | 40.7 nM | 2.6 nM | 71.8 nM | 48.7 nM | 104 nM |  |  |  | 
12 | Cc1c2ccc3c1nnn3CCCCCc1ccc(cc1)C(=O)N1CCc3ccc(cc3C1)[C@@H]2CC(=O)O [Compound 285] | 4.7 nM | 0.3 nM and 0.5 nM | 9.8 nM |  |  |  |  |  | 
13 | Cc1cc2ncc1[C@H](CC(=O)O)c1ccc3c(c1)CN(CC3)C(=O)c1ccc(cc1)CCOCCO2 [Compound 350] |  | 11.5 nM and 10.1 nM and 9.8 nM and 10.2 nM |  |  |  | 161 nM | 145 nM | 426 nM | 276 nM
14 | Cc1c2cnc3c1nnn3CCCCCCCc1ccc(cc1)C(=O)N1CCc3ccc(cc3C1)[C@@H]2CC(=O)O [Compound 77] |  | 0.4 nM and 0.8 nM |  |  |  | 11.7 nM | 13.7 nM | 45.3 nM | 34.5 nM
15 | Cc1c2ccc3c1nnn3CCCCCCc1ccc3c(c1)cc(n3CC(F)F)C(=O)N1CCc3ccc(cc3C1)[C@@H]2CC(=O)O [Compound 39] |  | 1 nM and 1.1 nM |  |  |  | 5.9 nM | 4.2 nM and 4.3 nM | 531 nM and 590 nM | 492 nM
16 | Cc1c2ccc3c1nnn3CCCCCOc1ccc(c(F)c1)C(=O)N1CCc3ccc(cc3C1)[C@@H]2CC(=O)O [Compound 254] | 16 nM | 1.8 nM | 16.4 nM | 17.2 nM | 22.6 nM |  |  |  | 
17 | C[C@H](C(=O)O)[C@H]1c2ccc3c(c2)CN(CC3)C(=O)c2ccc(cc2)OCCCCCn2nnc3cc1ccc32 [Compound 234] | 1840 nM | 49.1 nM | 3860 nM | 1410 nM | 5840 nM |  |  |  | 
18 | Cc1cc2ccc1C(=O)N1CCc3ccc(cc3C1)[C@H](CC(=O)O)c1ccc3c(nnn3CCC/C=C/C2)c1C [Compound 389] | 147 nM | 1.8 nM and 1.9 nM | 231 nM | 153 nM | 409 nM |  |  |  | 
19 | Cc1c2ccc3c1nnn3CCCCCc1ccc(cc1OC(F)F)C(=O)N1CCc3ccc(cc3C1)[C@@H]2CC(=O)O [Compound 38] |  | 0.4 nM and 0.3 nM |  |  |  | 4.8 nM | 4.5 nM | 17 nM | 15 nM
20 | Cc1c2ccc3c1nnn3CCCCCc1cnc3c(c1)cc(n3C)C(=O)N1CCc3ccc(cc3C1)[C@H]2CC(=O)O [Compound 111] |  | 0.4 nM and 0.2 nM |  |  |  | 19 nM | 19.5 nM | 101 nM | 122 nM
21 | Cc1cc2ccc1C(=O)N1CCc3ccc(cc3C1)C(CC(=O)O)c1ccc3c(nnn3CCCCCO2)c1C (centres unmarked) [Compound 335] | 35 nM | 2.5 nM and 2.9 nM and 6.4 nM and 1.3 nM | 36.1 nM |  |  |  |  |  | 
22 | Cc1c2ccc3c1nnn3CCCCCCOc1ccc(c3ccccc13)C(=O)N1CCc3ccc(cc3C1)C2CC(=O)O (centres unmarked) [Compound 284] | 3.4 nM | 0.4 nM and 0.3 nM | 22.8 nM |  |  |  |  |  | 
23 | Cc1c2ccc3c1nnn3CCCCCc1ccc(nc1)C(=O)N1CCc3ccc(cc3C1)C2CC(=O)O (centres unmarked) [Compound 228] | 524 nM | 1.3 nM | 771 nM | 471 nM | 667 nM |  |  |  | 
24 | Cc1c2ccc3c1nnn3CCCCCCOc1cc(F)c(c(F)c1)C(=O)N1CCc3ccc(cc3C1)C2CC(=O)O (centres unmarked) [Compound 315] | 2.2 nM | 0.7 nM and 0.3 nM | 25.9 nM |  |  |  |  |  | 
25 | Cc1cc2ccc1C(=O)N1CCc3ccc(cc3C1)C(CC(=O)O)c1cnc(cc1C)OCCCCC2 (centres unmarked) [Compound 163] | 2.6 nM | 2.4 nM | 10 nM | 3.3 nM | 9.3 nM |  |  |  | 
26 | Cc1c2ccc3c1nnn3CCCCCOc1ccc(c(Cl)c1)C(=O)N1CCc3ccc(cc3C1)C2CC(=O)O (centres unmarked) [Compound 302] | 129 nM | 0.8 nM and 0.9 nM | 134 nM | 213 nM | 196 nM |  |  |  | 
27 | Cc1cc2cc(C)c1C(=O)N1CCc3ccc(cc3C1)C(CC(=O)O)c1ccc3c(c1)nnn3CCCCCCO2 (centres unmarked) [Compound 293] | 141 nM | < 0.1 nM | 208 nM |  |  |  |  |  | 
28 | Cc1cc2cc3c1CCN(C3)C(=O)c1ccc(cc1)CCCCCCn1nnc3c(C)c(cnc31)C2CC(=O)O (centres unmarked) [Compound 106] |  | 0.9 nM and 0.7 nM |  |  |  | 4.5 nM | 5.6 nM | 44.8 nM | 35.5 nM
29 | O=C(O)CC1c2ccc3c(c2)CN(CC3)C(=O)c2ccc(cn2)CCCCCCn2nnc3c(Cl)c1ccc32 (centres unmarked) [Compound 225] | 169 nM | 2.5 nM and 2.4 nM | 303 nM | 175 nM | 339 nM |  |  |  | 
30 | O=C(O)CC1c2cnc(nc2)OCCCCCc2ccc(cc2)C(=O)N2CCc3ccc1cc3C2 (centres unmarked) [Compound 277, 2-(2-oxo-12-oxa-1,14,28-triazapentacyclo[16.5.3.23,6.213,16.021,25]triaconta-3,5,13(28),14,16(27),18(26),19,21(25),29-nonaen-17-yl)acetic Acid] | 459 nM | 2.5 nM and 1.9 nM and 2.7 nM and 1.7 nM | 3350 nM |  |  |  |  |  | 
